Results reported in PMC6300282, “Sulphamethazine derivatives as immunomodulating agents: New therapeutic strategies for inflammatory diseases” (PLoS ONE, 2018).

Key:
[1] = system: zymosan activated whole blood phagocytes; experiment: Oxidative burst assay (luminol-enhanced chemiluminescence), whole blood; format: cell-based; settings: human whole blood, serum opsonized zymosan, three doses 1, 10, 100 μg/mL, mean ± SD of three, NA = Not active, read-out: Oxidative Burst Inhibition (IC50) WB
Protocol: (§1) Luminol-enhanced chemiluminescence assay was performed, as described by Helfandet al., 1982 [17], with some modifications. Briefly 25 μL of diluted whole blood in HBSS^++ (Hanks Balanced Salt Solution, containing calcium chloride and magnesium chloride) [Sigma, St. Louis, USA] was incubated with 25 μL of three different concentrations of compounds (1, 10, and 100 μg/mL), each in triplicate. Control wells received HBSS^++ and cells, but no compounds. Test was performed in white half area 96-well plates [Costar, NY, USA], which was incubated at 37 °C for 15 minutes in the thermostat chamber of luminometer [Labsystems, Helsinki, Finland]. After incubation, 25 μL of serum opsonized zymosan (SOZ) [Fluka, Buchs, Switzerland] and 25 μL of intracellular reactive oxygen species detecting probe, luminol [Research Organics, Cleveland, OH, USA] were added into each well, except blank wells (containing only HBSS^++). The level of the ROS was recorded in luminometer in term of relative light units (RLU).

[2] = system: isolated polymorphonuclear neutrophils (PMNs); experiment: Oxidative burst assay (luminol-enhanced chemiluminescence), isolated PMNs; format: cell-based; settings: Polymorphonuclear neutrophil, isolated human PMNs, zymosan, three doses 1, 10, 100 μg/mL, mean ± SD of three, read-out: Oxidative Burst Inhibition (IC50) PMNs
From the text: Heparinized blood was obtained by vein puncture aseptically from healthy volunteers. The PMNs were isolated by ficoll-Hypaque density gradient method. The cells were isolated after centrifugation from the tube base. Cells were washed twice and suspended in Hank’s Balance salt solution (HBSS^--) (Ca^2+ and Mg^2+ free), RBCs were lysed using hypotonic solution. Cells were adjusted to their required concentration (1x10^6 cells/mL) using HBSS^++containing Ca^2+ and Mg^2+.
as §1

[3] = system: nitric oxide (NO) production from LPS activated J774.2 mouse macrophages; experiment: Nitric oxide production (Griess), LPS activated macrophages; format: cell-based; settings: J774.2 cells, 30 μg/mL LPS, three doses 1, 10, 100 μg/mL, mean ± SD of three, read-out: NO Inhibition (IC50)
Protocol: The mouse macrophage cell line J774.2 (European Collection of Cell Cultures, UK) was cultured in 75 cc flasks IWAKI (Asahi Techno Glass, Japan) in DMEM Sigma-Aldrich (Steinheim, Germany) supplemented with 10% fetal bovine serum GIBCO (New York, USA)1% streptomycin/penicillin. Flasks were kept at 37 °C in atmosphere of humidified air containing 5% CO2, cells were seeded in 96-well plate (10^6 cells/mL) and were induced by 30 μg/mL e. coli lipopolysaccharide (LPS) (DIFCO Laboratories michigon, USA). The test compounds were added at concentrations of (1, 10 and 100 μg/mL) and plate was incubated at 37 °C in 5% CO2. Nitrite accumulation in culture supernatant was measured using the Griess reagents as described previously.

[4] = system: TNF-α production from THP-1 human monocytic leukemia cell line; experiment: TNF-α production (ELISA), LPS stimulated THP-1 cells; format: cell-based; settings: PMA-differentiated THP-1 cells, 50 ng/mL LPS, 4 hours; three doses 1, 10, 100 μg/mL; mean ± SD of three
From the text: RPMI-1640 (R8758, Sigma Aldrich, St. Louis, USA); L-glutamine (25030081, Gibco, California, USA); D-glucose (G8270, Sigma Aldrich, St. Louis, USA); 2-mercaptoethanol (190242, MP Biomedicals, lllkirch, France); sodium pyruvate (11360–070, Gibco, California, USA); FBS (A11-104, PAA Laboratories, Pasching, Austria); HEPES (H3375, Sigma Aldrich, St. Louis, USA); PMA (151864, MP Biomedicals, lllkirch, France); lipopolysaccharide B of E. coli 0111:B4 (LPS) (3922–25, DIFCO Laboratories, USA); 24-well tissue culture plates (CLS3524, Corning, Dublin, USA); Flat bottom 96-well tissue culture plates (CLS3300, Corning, New York, USA). BSA (151429, MP Biomedicals, lllkirch, France); PBS tablets (41620016–4, Bioworld, Dublin, Ireland); Tween 20 (822184, Merck, Damstadt, Germany); Human TNF-α DuoSet ELISA Kit (DY210, R&D Systems, Minneapolis, USA); Human IL-1β DuoSet ELISA Kit (DY201, R&D Systems, Minneapolis, USA); and Human IL-2 DuoSet ELISA Kit (DY202, R&D Systems, Minneapolis, USA); ELISA plate sealers (DY992, R&D Systems, Minneapolis, USA); Clear flat bottom 96-well microplates (DY990, R&D Systems, Minneapolis, USA). Human monocytic leukemia cells THP-1 were obtained from (European Collection of Cell Cultures, UK). The cells were maintained in RPMI-1640 containing 5.5 mmol/L glucose (BioM Laboratories, Chemical Division, Malaysia), 50 μmol/L mercaptoethanol (Merck Damstadt, Germany), 10% FBS (fetal bovine serum), 2 mmol/L; L-glutamine (PAA Laboratories, GmbH, Pasching, Austria). Cells were grown in 75 cc flasks, harvested and 2.5×10^5 cells/mL was then plated in 24-well tissue culture plates. 20 ng/mL of phorbol-12-myristate-13-acetate (PMA), (SERVA, Heidelberg, Germany) was added followed by incubation for 24 hours at 37 °C in 5% CO2to convert them into macrophage like cell. Cells were then stimulated with E. coli lipopolysacchride B, (DIFCO Laboratories, michigon, USA) at a final concentration of 50 ng/mL and treated with compounds at three different concentration (1, 10 and 100 μg/mL) and then incubated for 4 hours at 37 °C in 5% CO2. The supernatants collected were analyzed for the level of TNF -α using the human TNF-α Duo Set ELISA (R&D Systems, Minneapolis, USA), and according to manufacturer’s instructions.

[5] = MTT cytotoxicity assay; format: cell-based, mouse; settings: mouse; MTT, 48 hours; read-out: Cytotoxicity NIH-3T3 cell line (IC50)
Protocol: (§2) The cytotoxicity was recorded as concentration causing 50% growth inhibition (IC50).

[6] = system: Bacillus subtilis (ATCC 6633); experiment: Microplate Alamar Blue Assay, Bacillus subtilis; format: cell-based; settings: ATCC6633, 200 μg/mL, NI = No inhibition, read-out: Percentage (%) Inhibition, Bacillus subtilis
Protocol: (§3) The anti-bacterial activity of synthesized compound were evaluated by the Microplate Alamar Blue Assay. Staphylococcus aureus (ATCC 25923), Pseudomonas aeruginosa(POA 286), Salmonella typhi (ATCC 14028), Bacillus subtilis ATCC 6633) and Escherichia coli (ATCC 12022) were used in this study as a standard bacterial strains and they were obtained from microbial bank of PCMD, International Center for Chemical and Biological Sciences, University of Karachi, Karachi-75270, Pakistan. The bacterial colonies grown in Trypton Soya Agar (TSA) (Oxoid Limited, UK) were inoculated in Mueller Hinton Broth (MHB) (Oxoid Limited, UK) and incubated overnight at 37 °C. Fully grown bacterial cultures were then diluted to adjust with 0.5 McFarland Turbidity Index (equivalent to 1.5 × 10^8 CFU/mL). Stock solutions (4 mg/mL) of different test compounds were prepared in DMSO and 10μL each of these stock solutions were placed in well of flat bottom, polystyrene, sterile 96-wells plate except the positive control wells (media + bacteria). This gives 200μg/mL concentrations of compounds in final 200 μL solution. Each compound was run in triplicates. Finally, bacterial suspension (5 x 10^6 CFU/mL) was added in each well. Plates were sealed by parafilm and incubated at 37 °C for 18–22 hrs. Next day, 20 μL of 0.02% resazurin sodium salt dye (Chem-Impex-Int’LInc) was added in each well and incubated in shaking incubator at 80 rpm, 37 °C for 2–3 hrs. The color change from blue to reddish pink indicates the growth of bacteria. For quantitative analysis, plates were read at 570 nm and 600 nm in Multiskan GOmicroplate spectrophotometer, (Thermo Scientific, USA). The % inhibition of bacterial growth was calculated using below mentioned formula.
(§4) For the calculation of the % difference in reduction between treated and control cells in cytotoxicity/proliferation assays: =(εOX)λ2Aλ1-(εOX)λ1Aλ2oftestagent/(εOX)λ2A°λ1-(εOX)λ1A°λ2ofpositivegrowthcontrol×100

[7] = system: Staphylococcus aureus (ATCC 25923); experiment: Microplate Alamar Blue Assay, Staphylococcus aureus; format: cell-based; settings: 200 μg/mL, NI = No inhibition; for inhibition at 200 µg/mL: Staphylococcus aureus, ATCC25923, read-out: Percentage (%) Inhibition, Staphylococcus aureus
Protocol: as §3, §4

[8] = system: Escherichia coli (ATCC 12022); experiment: Microplate Alamar Blue Assay, Escherichia coli; format: cell-based; settings: ATCC12022, 200 μg/mL, NI = No inhibition, read-out: Percentage (%) Inhibition, Escherichia coli
Protocol: as §3, §4

[9] = system: Pseudomonas aeruginosa (POA 286); experiment: Microplate Alamar Blue Assay, Pseudomonas aeruginosa; format: cell-based; settings: 200 μg/mL, NI = No inhibition; for inhibition at 200 µg/mL: Pseudomonas aeruginosa, read-out: Percentage (%) Inhibition, Pseudomonas aerugenosa
Protocol: as §3, §4

[10] = system: Salmonella typhi (ATCC 14028); experiment: Microplate Alamar Blue Assay, Salmonella typhi; format: cell-based; settings: 200 μg/mL, NI = No inhibition; for inhibition at 200 µg/mL: Salmonella enterica, read-out: Percentage (%) Inhibition, Slamonella typhi
Protocol: as §3, §4

[11] = system: mouse fibroblast NIH-3T3 cell line; experiment: MTT cytotoxicity assay; format: cell-based; settings: MTT, 48 hours
Protocol: as §2

Compound | IC50 [5] [µM] | inhibition at 200 µg/mL [6] [%] | inhibition at 200 µg/mL [7] [%] | inhibition at 200 µg/mL [8] [%] | inhibition at 200 µg/mL [9] [%] | inhibition at 200 µg/mL [10] [%] | other results
CC(C)Cc1ccc(C(C)C(=O)O)cc1 (centres unmarked) [40 (Ibuprofen), Ibuprofen, reference compound] |  |  |  |  |  |  | IC50 [1]: 11.2 ± 1.9 µg/mL; IC50 [2]: 2.5 ± 0.6 µg/mL
[H]/N=C(/NC)NCCC[C@H](N)C(=O)O [41 (L-NMMA), NG monomethyl L-arginine acetate, reference compound] |  |  |  |  |  |  | IC50 [3]: 24.2 ± 0.6 µg/mL
CC(=O)CCCCn1c(=O)c2c(ncn2C)n(C)c1=O [42 (Pentoxifillin), Pentoxifillin, reference compound] |  |  |  |  |  |  | TNF-α Inhibition (IC50) [4]: 94.8 ± 2.1 µg/mL
Cc1cc(C)nc(NS(=O)(=O)c2ccc(NC(=O)C34CCC(C)(C(=O)O3)C4(C)C)cc2)n1 (centres unmarked) [Compound 15, N-(4-(N-(4,6-dimethylpyrimidin-2-yl)sulfamoyl)phenyl)-4,7,7-trimethyl-3-oxo-2-oxabicyclo[2.2.1]heptane-1-carboxamide] | > 30 | 38.4 | 14.1 | < 0 | 29.4 | 29.3 | melting point: 254 to 256 °C
Cc1cc(C)nc(NS(=O)(=O)c2ccc(NC(=O)c3cccc(C(F)(F)F)c3)cc2)n1 [Compound 20] |  |  |  |  |  |  | IC50 [11]: > 30 µM; Percentage (%) Inhibition, Staphylococcus aureus [7]: 30.78%; Percentage (%) Inhibition, Pseudomonas aerugenosa [9]: 1.66%; Percentage (%) Inhibition, Slamonella typhi [10]: 9.30%
Cc1cc(C)nc(NS(=O)(=O)c2ccc(NC(=O)c3ccc(Cl)cc3Cl)cc2)n1 [Compound 24, 2,4-dichloro-N-(4-(N-(4,6-dimethylpyrimidin-2-yl)sulfamoyl)phenyl)benzamide] | > 30 | < 0 | 48.4 | 7.45 | < 0 | 18.4 | melting point: 233 to 236 °C
Cc1cc(C)nc(NS(=O)(=O)c2ccc(NC(=O)c3ccccc3C)cc2)n1 [Compound 35, N-(4-(N-(4,6-dimethylpyrimidin-2-yl)sulfamoyl)phenyl)-2-methylbenzamide] | > 30 | < 0 | < 0 | < 0 | 16.5 | 0.2 | 
Cc1cccc(C(=O)Nc2ccc(S(=O)(=O)Nc3nc(C)cc(C)n3)cc2)c1 [Compound 36, N-(4-(N-(4,6-dimethylpyrimidin-2-yl)sulfamoyl)phenyl)-3-methylbenzamide] | > 30 | < 0 | < 0 | < 0 | 20.5 | < 0 | 
Cc1cc(C)nc(NS(=O)(=O)c2ccc(NC(=O)CCc3ccccc3)cc2)n1 [Compound 37, N-(4-(N-(4,6-dimethylpyrimidin-2-yl)sulfamoyl)phenyl)-3-phenylpropanamide] | > 30 | < 0 | 10.2 | < 0 | < 0 | < 0 | 
Cc1cc(C)cc(C(=O)Nc2ccc(S(=O)(=O)Nc3nc(C)cc(C)n3)cc2)c1 [Compound 38, N-(4-(N-(4,6-dimethylpyrimidin-2-yl)sulfamoyl)phenyl)-3,5-dimethylbenzamide] | > 30 | < 0 | < 0 | < 0 | 19 | < 0 | melting point: 216 to 218 °C
Cc1cc(C)nc(NS(=O)(=O)c2ccc(NC(=O)c3ccccc3)cc2)n1 [Compound 39, N-(4-(N-(4,6-dimethylpyrimidin-2-yl)sulfamoyl)phenyl)benzamide] | > 30 | < 0 | 41.1 | 1.84 | < 0 | 12.5 | 
